Results on ten compounds are retold here after paper PMC4980843 (European journal of medicinal chemistry, 2009).

Read-outs that look alike come from different tables or passages of the source. Where only a bound is given, the exact number is not on record here.

In assay [1] the test system is human HT-29 colon tumor cell line. Briefly: Tumor cell growth inhibition, Cell Titer Glo assay, 72 h. Format: cell-based. The conditions noted are these: HT-29 cells.
In a further assay the target is human PDE3A isozyme (Homo sapiens, UniProt Q14432). Put plainly: IMAP fluorescence polarization phosphodiesterase assay. The format is biochemical. The conditions noted are these: for % PDE3 Inhibition at 50 μM, cGMP: cGMP as substrate.
Sequence of human PDE3A isozyme (Q14432 whole entry): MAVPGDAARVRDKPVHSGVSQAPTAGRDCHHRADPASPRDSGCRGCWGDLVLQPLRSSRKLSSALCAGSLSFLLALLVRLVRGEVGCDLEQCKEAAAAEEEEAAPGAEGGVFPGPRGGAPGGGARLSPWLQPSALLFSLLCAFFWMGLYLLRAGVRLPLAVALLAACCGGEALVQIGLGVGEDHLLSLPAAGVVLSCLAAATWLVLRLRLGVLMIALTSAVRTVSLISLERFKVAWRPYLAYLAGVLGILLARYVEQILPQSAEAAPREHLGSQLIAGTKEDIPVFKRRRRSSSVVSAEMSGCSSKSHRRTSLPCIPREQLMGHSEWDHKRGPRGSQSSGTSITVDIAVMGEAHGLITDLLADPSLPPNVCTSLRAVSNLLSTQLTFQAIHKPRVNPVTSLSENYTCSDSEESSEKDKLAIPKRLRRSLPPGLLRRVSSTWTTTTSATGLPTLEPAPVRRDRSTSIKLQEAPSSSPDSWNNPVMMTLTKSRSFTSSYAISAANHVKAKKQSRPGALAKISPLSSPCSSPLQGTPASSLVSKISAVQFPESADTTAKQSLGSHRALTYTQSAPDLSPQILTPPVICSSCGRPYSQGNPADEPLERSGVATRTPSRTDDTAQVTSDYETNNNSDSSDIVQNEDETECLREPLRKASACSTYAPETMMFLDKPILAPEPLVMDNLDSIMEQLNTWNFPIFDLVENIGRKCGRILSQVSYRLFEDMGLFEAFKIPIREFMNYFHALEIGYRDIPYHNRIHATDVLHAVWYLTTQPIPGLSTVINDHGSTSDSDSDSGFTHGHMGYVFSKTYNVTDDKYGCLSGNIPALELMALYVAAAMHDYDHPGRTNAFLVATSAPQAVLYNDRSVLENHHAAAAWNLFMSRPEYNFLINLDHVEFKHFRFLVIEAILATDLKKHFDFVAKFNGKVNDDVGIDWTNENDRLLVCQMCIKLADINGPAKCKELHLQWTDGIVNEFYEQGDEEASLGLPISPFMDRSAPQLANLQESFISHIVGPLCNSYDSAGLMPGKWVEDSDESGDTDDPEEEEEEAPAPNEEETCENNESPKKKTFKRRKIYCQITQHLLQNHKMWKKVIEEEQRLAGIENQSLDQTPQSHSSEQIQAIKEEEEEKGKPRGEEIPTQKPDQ

For the compound `N#Cc1c(-c2ccccc2O)cc(-c2ccsc2)[nH]c1=O` [Compound 19, 4-(2-Hydroxyphenyl)-2-oxo-6-thiophen-3-yl-1,2-dihydropyridine-3-carbonitrile], the “tumor cell growth inhibitory activity (in words)” value in assay [1] is listed as “displayed tumor cell growth inhibitory activity”.
With `CCOc1ccc(-c2cc(-c3ccsc3)[nH]c(=N)c2C#N)cc1` [Compound 26, 4-(4-Ethoxyphenyl)-2-imino-6-(thiophen-3-yl)-1,2-dihydropyridine-3-carbonitrile], the “% PDE3 Inhibition at 50 μM, cGMP” value at human PDE3A isozyme (50 μM) was greater than 50%. Besides, the inhibition at 50 µM at human PDE3A isozyme (read-out: % PDE3 Inhibition at 50 μM, cAMP, 50 μM, cAMP as substrate) is greater than 50%. Besides, the “tumor cell growth inhibitory activity (in words)” value in assay [1] is given as “no tumor cell growth inhibitory activity”.
As for `CCOc1ccccc1-c1cc(-c2ccsc2)[nH]c(=N)c1C#N` [Compound 27, 4-(2-Ethoxyphenyl)-2-imino-6-(thiophen-3-yl)-1,2-dihydropyridine-3-carbonitrile], the “tumor cell growth inhibitory activity (in words)” value in assay [1] was “displayed tumor cell growth inhibitory activity”.
As to “2-Imino-4-phenyl-6-(thiophen-3-yl)-1,2-dihydropyridine-3-carbonitrile [Compound 25]”, the “% PDE3 Inhibition at 50 μM, cAMP” value at human PDE3A isozyme (50 μM, cAMP as substrate) is reported as 21%. Moreover, on human PDE3A isozyme (50 μM), the “% PDE3 Inhibition at 50 μM, cGMP” value is given as 26%.
For `COc1ccc(OC)c(-c2cc(-c3ccc(Br)cc3)[nH]c(=N)c2C#N)c1` [Compound 9, 6-(4-Bromophenyl)-4-(2,5-dimethoxyphenyl)-2-imino1,2-dihydropyridine3-carbonitrile], the “tumor cell growth inhibitory activity (in words)” value in assay [1] was “displayed tumor cell growth inhibitory activity”.
For `COc1ccc(-c2cc(-c3ccsc3)[nH]c(=N)c2C#N)cc1` [Compound 28, 2-Imino-4-(4-methoxyphenyl)-6-(thiophen-3-yl)-1,2-dihydropyridine-3-carbonitrile], in assay [1], the “tumor cell growth inhibitory activity (in words)” value was “displayed tumor cell growth inhibitory activity”.
Still for that read-out and setting: next, `N#Cc1c(-c2ccccc2O)cc(-c2ccc(Br)cc2)[nH]c1=O` [Compound 1, 6-(4-Bromophenyl)-4-(2-hydroxyphenyl)-2-oxo-1,2-dihydropyridine-3-carbonitrile]: “displayed tumor cell growth inhibitory activity”; `CCOc1ccccc1-c1cc(-c2ccsc2)[nH]c(=O)c1C#N` [Compound 21, 4-(2-Ethoxyphenyl)-2-oxo-6-thiophen-3-yl-1,2-dihydropyridine-3 carbonitrile]: “displayed tumor cell growth inhibitory activity”; `N#Cc1c(-c2cccc(Cl)c2)cc(-c2ccccc2)[nH]c1=O` [Compound 15, 4-(3-Chlorophenyl)-2-oxo-6-phenyl-1,2-dihydropyridine-3-carbonitrile]: “displayed tumor cell growth inhibitory activity”.
On to `COc1ccccc1-c1cc(-c2ccsc2)[nH]c(=N)c1C#N` [Compound 29, 2-Imino-4-(2-methoxyphenyl)-6-(thiophen-3-yl)-1,2-dihydropyridine-3-carbonitrile], for which the inhibition at 50 µM on human PDE3A isozyme (read-out: % PDE3 Inhibition at 50 μM, cGMP, 50 μM, cGMP as substrate) is -95%. Further, the “tumor cell growth inhibitory activity (in words)” value in assay [1] was “displayed tumor cell growth inhibitory activity”.
